Measurements published in article PMC6193120, “Substrate Specificity Analysis of Dihydrofolate/Dihydromethanopterin Reductase Homologs in Methylotrophic α-Proteobacteria” (Frontiers in Microbiology, 2018).

Experiments:
[1] = system: T1, Hni-DAGK-H6; test: NADPH oxidation at […] nm, anaerobic; type: biochemical, Hyphomicrobium nitrativorans; settings: 0.1 mM NADPH, pH 5.3, sodium acetate; H2SPT from partially oxidized Methanosarcina thermophila H4SPT fraction; read-out: KM(app)
T1 construct: gene dmrA

[2] = target: T2, M. extorquens AM1 DmrA-H4 (Methylorubrum extorquens, UniProt C5B2R8); test: NADPH oxidation at […] nm, anaerobic; type: biochemical; settings: 0.1 mM NADPH, pH 5.3, sodium acetate; H2SPT from partially oxidized Methanosarcina thermophila H4SPT fraction; read-out: KM(app)
T2 sequence (C5B2R8 1-135): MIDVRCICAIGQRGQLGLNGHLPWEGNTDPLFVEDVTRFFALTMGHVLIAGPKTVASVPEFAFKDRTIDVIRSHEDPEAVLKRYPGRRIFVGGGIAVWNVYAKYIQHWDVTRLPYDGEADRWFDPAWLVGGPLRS

[3] = system: T3, Mno-DAGK-H6; test: NADPH oxidation at […] nm, anaerobic; type: biochemical, Methylobacterium nodulans; settings: 0.1 mM NADPH, pH 5.3, sodium acetate; H2SPT from partially oxidized Methanosarcina thermophila H4SPT fraction; read-out: KM(app)
T3 construct: gene dmrA

[4] = substrate: Nc1nc2c(c(=O)[nH]1)N=C(CNc1ccc(C(=O)N[C@@H](CCC(=O)O)C(=O)O)cc1)CN2; test: purified protein; type: biochemical, Methylorubrum extorquens; settings: 100 μM NADPH, pH 6.8, room temperature

dihydrosarcinapterin
Km [1]: 102 ± 73 µM
Km [2]: 193 ± 71 µM
Km [3]: 695 ± 176 µM

B1: H6-DfrA (Methylorubrum extorquens) (protein)
chain: MAQPRISLVAAIARNGVIGRDNSLAWRLSSDLKRFKALTMGKPILMGRKTWDSIGRPLPGRRSLVITRDRSLALSDVTVVHDWDEALAAAGDDELMVVGGAEIYRLALPHADRLHLTEVDAAPEGDAYFPPFDRSLFRETLREAHGPGERDEFAFQFVDLERLGSR
Km [4]: 14 ± 3.0 µM

B2: H6-DfrB (Methylorubrum extorquens) (protein)
chain: MDVRLIAAIGRRGQLGLEGDMPWGRSFPDDLRRFRELTAGGIVLVGWRTWPTVERLQGTHGRRFVVDDVKLPPTGMLVRLQEPDASGTRDRPVWIAGGAKTYARYARFVDEFVVRRVPYDGPADTWMPDLLGTPEADRTDGPYTGRSPTDKQWRPGCRRLRDR
notes: megaplasmid-encoded
Km [4]: 18 ± 8.9 µM
